Reference: ChEMBL document CHEMBL1201862, “PubChem BioAssay data set” (2004)
The source made the active and inactive calls.

Key:
[1] = molecular target: Receptor tyrosine-protein kinase erbB-2 (Homo sapiens, UniProt P04626); experiment: Navigating the Kinome. Panel member name: ERBB2; type: functional
[2] = molecular target: Aurora kinase A (Homo sapiens, UniProt O14965); type: functional;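 note: value from the Navigating the Kinome kinase panel profiling, panel entry STK6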
[3] = molecular target: Rho-associated protein kinase 2 (Homo sapiens, UniProt O75116); type: functional
Rho-associated protein kinase 2, sequence (O75116 whole entry): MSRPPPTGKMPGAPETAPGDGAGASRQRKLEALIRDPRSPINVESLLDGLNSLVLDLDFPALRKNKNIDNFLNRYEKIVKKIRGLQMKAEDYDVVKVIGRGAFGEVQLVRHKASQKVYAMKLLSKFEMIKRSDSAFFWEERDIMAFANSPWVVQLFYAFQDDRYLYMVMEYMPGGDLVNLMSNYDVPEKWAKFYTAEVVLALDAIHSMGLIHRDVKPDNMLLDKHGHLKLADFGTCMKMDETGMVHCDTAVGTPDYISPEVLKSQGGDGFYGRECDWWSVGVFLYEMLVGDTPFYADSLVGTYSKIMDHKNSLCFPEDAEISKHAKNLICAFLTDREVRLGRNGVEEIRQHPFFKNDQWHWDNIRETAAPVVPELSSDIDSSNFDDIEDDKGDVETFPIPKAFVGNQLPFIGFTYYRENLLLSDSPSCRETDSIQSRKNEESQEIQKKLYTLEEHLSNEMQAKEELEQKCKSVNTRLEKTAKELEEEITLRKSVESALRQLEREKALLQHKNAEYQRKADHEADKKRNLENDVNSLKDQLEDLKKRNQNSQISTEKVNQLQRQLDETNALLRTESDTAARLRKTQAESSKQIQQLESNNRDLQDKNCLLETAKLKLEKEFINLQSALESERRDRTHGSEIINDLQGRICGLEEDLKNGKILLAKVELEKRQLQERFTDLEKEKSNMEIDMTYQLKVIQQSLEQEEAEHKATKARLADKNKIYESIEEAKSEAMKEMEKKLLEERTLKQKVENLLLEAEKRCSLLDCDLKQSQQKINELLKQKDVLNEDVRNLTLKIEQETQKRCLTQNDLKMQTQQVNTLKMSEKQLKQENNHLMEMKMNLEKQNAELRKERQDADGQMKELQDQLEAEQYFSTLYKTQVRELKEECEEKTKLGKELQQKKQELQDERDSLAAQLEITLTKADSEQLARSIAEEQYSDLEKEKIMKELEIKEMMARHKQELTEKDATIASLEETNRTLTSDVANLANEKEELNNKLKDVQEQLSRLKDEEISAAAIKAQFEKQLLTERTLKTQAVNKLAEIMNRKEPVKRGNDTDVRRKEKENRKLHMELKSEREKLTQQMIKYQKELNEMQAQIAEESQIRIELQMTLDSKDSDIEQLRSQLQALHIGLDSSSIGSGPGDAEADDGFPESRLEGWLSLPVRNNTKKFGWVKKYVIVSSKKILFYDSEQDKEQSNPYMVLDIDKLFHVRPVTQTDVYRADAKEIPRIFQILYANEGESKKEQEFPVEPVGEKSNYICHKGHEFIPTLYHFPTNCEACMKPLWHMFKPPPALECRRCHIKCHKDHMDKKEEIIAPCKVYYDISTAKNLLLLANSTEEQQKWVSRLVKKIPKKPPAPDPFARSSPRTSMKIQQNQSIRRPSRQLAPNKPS

[4] = molecular target: Cyclin-dependent kinase 8 (Homo sapiens, UniProt P49336); experiment: Navigating the Kinome. Panel member name: CDK8; type: functional
Cyclin-dependent kinase 8, sequence (P49336 whole entry): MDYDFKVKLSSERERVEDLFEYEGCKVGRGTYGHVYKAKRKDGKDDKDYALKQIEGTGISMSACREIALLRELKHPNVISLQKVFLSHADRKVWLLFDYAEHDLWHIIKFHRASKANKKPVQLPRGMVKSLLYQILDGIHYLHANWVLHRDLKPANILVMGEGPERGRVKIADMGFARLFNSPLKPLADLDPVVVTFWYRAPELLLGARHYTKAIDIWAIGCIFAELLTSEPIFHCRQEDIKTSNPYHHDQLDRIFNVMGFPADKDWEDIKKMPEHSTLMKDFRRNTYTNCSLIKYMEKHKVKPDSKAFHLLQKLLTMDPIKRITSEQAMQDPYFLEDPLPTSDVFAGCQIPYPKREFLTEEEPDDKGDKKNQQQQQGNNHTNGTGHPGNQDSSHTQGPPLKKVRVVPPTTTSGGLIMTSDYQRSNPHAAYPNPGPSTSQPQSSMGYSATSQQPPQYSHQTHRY

[5] = molecular target: 3-phosphoinositide-dependent protein kinase 1 (Homo sapiens, UniProt O15530); type: functional;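 note: value comes from the Navigating the Kinome panel, PDPK1 member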
[6] = molecular target: Interleukin-1 receptor-associated kinase 4 (Homo sapiens, UniProt Q9NWZ3); type: functional
Interleukin-1 receptor-associated kinase 4, sequence (Q9NWZ3 whole entry): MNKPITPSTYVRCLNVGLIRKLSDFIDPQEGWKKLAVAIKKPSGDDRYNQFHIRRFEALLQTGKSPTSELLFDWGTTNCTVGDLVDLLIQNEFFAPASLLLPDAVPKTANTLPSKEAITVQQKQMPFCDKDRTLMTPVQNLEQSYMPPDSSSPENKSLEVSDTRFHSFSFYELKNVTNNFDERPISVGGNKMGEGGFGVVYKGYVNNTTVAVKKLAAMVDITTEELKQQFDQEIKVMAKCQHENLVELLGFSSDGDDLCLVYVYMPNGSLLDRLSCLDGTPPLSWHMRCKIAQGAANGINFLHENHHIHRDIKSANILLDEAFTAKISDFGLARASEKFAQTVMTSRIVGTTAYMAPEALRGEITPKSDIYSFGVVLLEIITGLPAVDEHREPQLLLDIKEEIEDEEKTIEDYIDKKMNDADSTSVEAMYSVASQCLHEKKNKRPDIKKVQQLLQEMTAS

[7] = molecular target: Serine/threonine-protein kinase Chk1 (Homo sapiens, UniProt O14757); type: functional;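 note: measured as one member of a kinome-wide kinase profiling panel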
[8] = molecular target: Death-associated protein kinase 3 (Homo sapiens, UniProt O43293); type: functional;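 note: measured as one member of a kinome-wide profiling panel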
Death-associated protein kinase 3, sequence (O43293 whole entry): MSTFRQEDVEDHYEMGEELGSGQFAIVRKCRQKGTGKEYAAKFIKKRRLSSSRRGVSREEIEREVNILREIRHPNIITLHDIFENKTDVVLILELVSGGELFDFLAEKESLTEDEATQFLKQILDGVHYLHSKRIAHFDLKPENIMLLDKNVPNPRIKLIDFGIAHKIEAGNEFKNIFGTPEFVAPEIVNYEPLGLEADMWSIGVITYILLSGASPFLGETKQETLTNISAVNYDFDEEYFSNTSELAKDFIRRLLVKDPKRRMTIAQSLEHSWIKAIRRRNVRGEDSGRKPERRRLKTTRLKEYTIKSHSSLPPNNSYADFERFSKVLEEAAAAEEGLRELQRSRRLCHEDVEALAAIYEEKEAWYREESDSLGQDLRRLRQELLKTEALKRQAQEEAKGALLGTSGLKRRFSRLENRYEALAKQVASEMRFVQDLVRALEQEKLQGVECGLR

[9] = molecular target: Testis-specific serine/threonine-protein kinase 2 (Homo sapiens, UniProt Q96PF2); type: functional;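 note: part of the Navigating the Kinome panel, target entry STK22B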
[10] = molecular target: Dual specificity mitogen-activated protein kinase kinase 1 (Homo sapiens, UniProt Q02750); experiment: Navigating the Kinome. Panel member name: MAP2K1; type: functional
[11] = molecular target: Dual specificity mitogen-activated protein kinase kinase 2 (Homo sapiens, UniProt P36507); experiment: Navigating the Kinome. Panel member name: MAP2K2; type: functional
[12] = molecular target: Macrophage colony-stimulating factor 1 receptor (Homo sapiens, UniProt P07333); type: functional;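 note: value comes from the Navigating the Kinome screening panel, CSF1R member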
[13] = molecular target: Tyrosine-protein kinase ABL1 (Homo sapiens, UniProt P00519); type: functional
[14] = molecular target: Ribosomal protein S6 kinase beta-1 (Homo sapiens, UniProt P23443); type: functional;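 note: measured as one member of a kinome-wide profiling panel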
[15] = molecular target: Tyrosine-protein kinase Blk (Homo sapiens, UniProt P51451); type: functional;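 note: obtained as one member of a kinome-wide kinase assay panel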
[16] = molecular target: Proto-oncogene tyrosine-protein kinase ROS (Homo sapiens, UniProt P08922); type: functional;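 note: ROS1 tested as one member of a kinome-wide kinase panel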
[17] = molecular target: Mitogen-activated protein kinase kinase kinase kinase 2 (Homo sapiens, UniProt Q12851); type: functional;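 note: measured as one member of a kinome-wide kinase panel, with MAP4K2 as the panel entry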
[18] = molecular target: Tyrosine-protein kinase Fer (Homo sapiens, UniProt P16591); type: functional;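 note: FER tested as one member of a kinome panel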
[19] = molecular target: Focal adhesion kinase 1 (Homo sapiens, UniProt Q05397); type: functional;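 note: measured as one member of a kinome panel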
Focal adhesion kinase 1, sequence (Q05397 whole entry): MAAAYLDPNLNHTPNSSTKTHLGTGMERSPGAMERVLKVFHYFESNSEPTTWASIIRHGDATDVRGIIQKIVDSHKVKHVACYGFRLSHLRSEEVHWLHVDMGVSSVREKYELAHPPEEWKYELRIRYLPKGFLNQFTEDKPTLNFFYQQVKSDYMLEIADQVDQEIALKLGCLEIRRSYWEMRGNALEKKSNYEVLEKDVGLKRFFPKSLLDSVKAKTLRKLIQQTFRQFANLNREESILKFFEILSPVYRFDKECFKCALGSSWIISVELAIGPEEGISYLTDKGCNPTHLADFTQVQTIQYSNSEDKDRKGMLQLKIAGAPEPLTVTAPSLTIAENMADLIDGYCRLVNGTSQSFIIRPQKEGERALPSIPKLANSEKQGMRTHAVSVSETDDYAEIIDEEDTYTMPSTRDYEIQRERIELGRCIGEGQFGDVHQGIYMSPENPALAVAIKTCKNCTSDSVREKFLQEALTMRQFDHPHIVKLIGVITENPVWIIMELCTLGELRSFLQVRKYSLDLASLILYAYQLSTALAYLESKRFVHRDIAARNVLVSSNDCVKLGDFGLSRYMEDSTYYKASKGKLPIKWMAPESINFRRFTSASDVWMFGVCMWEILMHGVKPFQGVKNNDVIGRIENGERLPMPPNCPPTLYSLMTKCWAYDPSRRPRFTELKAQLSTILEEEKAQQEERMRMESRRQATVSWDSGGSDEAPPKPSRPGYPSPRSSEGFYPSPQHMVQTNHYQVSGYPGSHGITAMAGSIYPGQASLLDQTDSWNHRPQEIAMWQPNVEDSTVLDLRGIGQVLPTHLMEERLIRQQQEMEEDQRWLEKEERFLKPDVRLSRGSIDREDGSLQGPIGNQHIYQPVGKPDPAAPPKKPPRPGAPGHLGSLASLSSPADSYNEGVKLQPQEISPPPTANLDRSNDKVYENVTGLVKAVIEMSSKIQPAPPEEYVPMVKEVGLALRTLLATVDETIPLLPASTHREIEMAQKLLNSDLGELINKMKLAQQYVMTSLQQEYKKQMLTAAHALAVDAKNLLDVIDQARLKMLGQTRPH

[20] = molecular target: Tyrosine-protein kinase receptor UFO (Homo sapiens, UniProt P30530); type: functional
[21] = molecular target: Tyrosine-protein kinase FRK (Homo sapiens, UniProt P42685); type: functional;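 note: FRK tested as one member of a kinome panel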
[22] = molecular target: MAP kinase-activated protein kinase 2 (Homo sapiens, UniProt P49137); type: functional;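 note: measured as one member of a kinome-wide kinase panel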
[23] = molecular target: Leukocyte tyrosine kinase receptor (Homo sapiens, UniProt P29376); experiment: Navigating the Kinome. Panel member name: LTK; type: functional
[24] = molecular target: Peroxisome proliferator-activated receptor gamma/Nuclear receptor corepressor 2 (Homo sapiens, UniProt P37231+Q9Y618); type: functional
[25] = molecular target: Serine/threonine-protein phosphatase PP1-alpha catalytic subunit (Homo sapiens, UniProt P62136); experiment: inhibition of protein phosphatase 1 activity – biochemical, fluorescence, dose response (AID 2394)
[26] = molecular target: T1, Sentrin-specific protease 7 (Homo sapiens, UniProt Q9BQF6); experiment: inhibition of human SENP7 cleavage activity – biochemical, luminescence, SAR follow-up (AID 504497); type: functional
T1 sequence (Q9BQF6 whole entry): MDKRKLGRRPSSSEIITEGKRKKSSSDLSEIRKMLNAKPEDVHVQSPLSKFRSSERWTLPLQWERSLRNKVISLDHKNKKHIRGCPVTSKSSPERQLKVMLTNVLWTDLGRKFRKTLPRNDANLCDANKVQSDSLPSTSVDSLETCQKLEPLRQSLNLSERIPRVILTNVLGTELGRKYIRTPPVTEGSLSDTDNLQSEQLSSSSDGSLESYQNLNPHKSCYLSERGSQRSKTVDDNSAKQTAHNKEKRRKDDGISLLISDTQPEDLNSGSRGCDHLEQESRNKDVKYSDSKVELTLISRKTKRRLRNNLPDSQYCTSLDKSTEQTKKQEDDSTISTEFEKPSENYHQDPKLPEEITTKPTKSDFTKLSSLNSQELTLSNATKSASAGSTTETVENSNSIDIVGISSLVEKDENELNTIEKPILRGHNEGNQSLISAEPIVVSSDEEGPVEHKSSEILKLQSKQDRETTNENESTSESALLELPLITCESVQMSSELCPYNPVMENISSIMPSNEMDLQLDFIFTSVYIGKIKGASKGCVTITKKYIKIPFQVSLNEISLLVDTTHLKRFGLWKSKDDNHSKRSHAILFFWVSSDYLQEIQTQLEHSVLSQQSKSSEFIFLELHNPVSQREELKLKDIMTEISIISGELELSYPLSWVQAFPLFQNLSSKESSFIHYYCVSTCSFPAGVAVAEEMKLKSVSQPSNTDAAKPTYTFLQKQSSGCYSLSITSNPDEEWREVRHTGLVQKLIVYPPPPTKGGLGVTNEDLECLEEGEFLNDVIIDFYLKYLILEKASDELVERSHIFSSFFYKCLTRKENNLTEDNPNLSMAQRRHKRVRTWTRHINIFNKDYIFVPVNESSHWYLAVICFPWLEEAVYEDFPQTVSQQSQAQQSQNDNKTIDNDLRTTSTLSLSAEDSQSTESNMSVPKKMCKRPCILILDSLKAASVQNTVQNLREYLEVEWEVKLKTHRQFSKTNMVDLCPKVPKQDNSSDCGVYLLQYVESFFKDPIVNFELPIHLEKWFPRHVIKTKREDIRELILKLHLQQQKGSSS

Receptor tyrosine-protein kinase erbB-2, sequence (P04626 whole entry): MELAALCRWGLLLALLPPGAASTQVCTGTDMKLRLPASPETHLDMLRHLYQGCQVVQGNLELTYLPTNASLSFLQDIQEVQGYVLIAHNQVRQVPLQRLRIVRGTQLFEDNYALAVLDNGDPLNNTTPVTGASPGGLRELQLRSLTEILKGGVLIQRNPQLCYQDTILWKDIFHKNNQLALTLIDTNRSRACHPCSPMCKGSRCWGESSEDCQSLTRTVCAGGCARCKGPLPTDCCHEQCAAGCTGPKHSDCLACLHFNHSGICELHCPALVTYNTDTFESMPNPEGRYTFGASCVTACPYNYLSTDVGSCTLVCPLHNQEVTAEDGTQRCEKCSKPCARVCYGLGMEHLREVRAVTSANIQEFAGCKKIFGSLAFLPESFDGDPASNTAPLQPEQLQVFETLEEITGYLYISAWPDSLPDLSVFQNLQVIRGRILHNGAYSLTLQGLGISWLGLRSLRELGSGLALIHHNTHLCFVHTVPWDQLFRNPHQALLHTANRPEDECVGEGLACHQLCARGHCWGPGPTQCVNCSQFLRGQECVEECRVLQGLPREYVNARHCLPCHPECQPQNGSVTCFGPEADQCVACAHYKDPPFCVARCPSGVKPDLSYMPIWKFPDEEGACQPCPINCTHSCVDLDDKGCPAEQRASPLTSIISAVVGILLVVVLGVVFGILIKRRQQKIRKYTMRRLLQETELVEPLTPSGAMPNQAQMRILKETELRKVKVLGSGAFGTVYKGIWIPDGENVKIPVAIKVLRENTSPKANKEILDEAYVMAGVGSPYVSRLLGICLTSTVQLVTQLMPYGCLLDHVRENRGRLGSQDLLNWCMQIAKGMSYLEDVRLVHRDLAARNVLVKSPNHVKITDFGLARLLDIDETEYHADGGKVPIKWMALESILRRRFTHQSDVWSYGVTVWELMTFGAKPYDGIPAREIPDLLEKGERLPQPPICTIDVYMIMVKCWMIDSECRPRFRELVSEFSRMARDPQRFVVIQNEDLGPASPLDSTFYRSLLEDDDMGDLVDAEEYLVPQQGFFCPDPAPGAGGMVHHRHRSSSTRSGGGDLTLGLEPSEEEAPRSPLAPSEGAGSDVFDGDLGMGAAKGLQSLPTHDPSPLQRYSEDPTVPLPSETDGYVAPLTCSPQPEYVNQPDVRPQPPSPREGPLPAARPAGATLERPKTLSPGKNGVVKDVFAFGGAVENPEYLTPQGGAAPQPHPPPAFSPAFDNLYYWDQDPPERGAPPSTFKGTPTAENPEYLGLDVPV

In the case of `CC(N)C1CCC(C(=O)Nc2ccnc3[nH]ccc23)CC1` (stereo unspecified), the Ki [1] is reported as > 1580 nM (inactive), the Ki [2] is reported as > 2000 nM (inactive) and the Ki [3] is reported as 25.1 nM (active). For the same molecule, the Ki [4] was 501 nM (active), the Ki [5] was 631 nM (active) and the Ki [6] was 2510 nM (active). For the same molecule, the Ki [7] was > 7940 nM (inactive), the Ki [8] was > 1260 nM (inactive) and the Ki [9] was > 1580 nM (inactive). For the same molecule, the Ki [10] was > 2510 nM (inactive), the Ki [11] was > 2000 nM (inactive) and the Ki [12] was > 2510 nM (inactive). The Ki [13] was > 631 nM (inactive), the Ki [14] was 501 nM (active) and the Ki [15] was > 1580 nM (inactive). The Ki [16] was > 2000 nM (inactive), the Ki [17] was > 2000 nM (inactive) and the Ki [18] was > 1580 nM (inactive). The Ki [19] was > 3160 nM (inactive), the Ki [20] was > 2000 nM (inactive) and the Ki [21] was > 2510 nM (inactive). The Ki [22] was > 7940 nM (inactive) and the Ki [23] was 398 nM (active).
For `COc1cc(Br)c(C(=O)c2nccc3cc(OC)c(OC)cc23)cc1OC`, the IC50 [24] was > 39800 nM (not active), the IC50 [25] was 52100 nM (not active) and the IC50 [26] was 2990 nM (active).
